Test results published in paper PMC3139667, “A Screen against Leishmania Intracellular Amastigotes: Comparison to a Promastigote Screen and Identification of a Host Cell-Specific Hit” (PLoS Neglected Tropical Diseases, 2011).
Read-outs that look alike come from different tables or passages of the source.

Key:
[1] = tested on: L. donovani intracellular amastigotes; assay: Intracellular amastigote high-throughput image-based assay in infected THP-1 macrophages; assay type: cell-based, Leishmania donovani; conditions: for GI50: L. donovani in THP-1, 72 h, parasites per host cell, read-out: GI50 Intracellular amastigote; for Specificity: ratio between promastigote GI50 and intracellular amastigote GI50, >2 more active against intracellular amastigote, <0.4 more active against promastigotes
Procedure: (§1) Sterile, black, 96-well, clear bottom plates (Greiner Bio-One) were seeded with exponentially growing THP-1 (5×10^5cells/ml). THP-1 were treated with 0.1 µM phorbol myristate acetate (PMA, Sigma) at 37°C for 48 h to achieve differentiation into adherent, non-dividing macrophages. Maturation of THP-1 cells towards monocyte-macrophage like cells is essential to avoid parasitized cells being overgrown by replicating cells. After activation by PMA, cells were washed and incubated with complete RPMI medium containing stationary phase L. donovani promastigotes at a macrophage/promastigote ratio of 1/15. After 4 h incubation at 37°C, non-internalized promastigotes were removed by 2–3 successive washes with RPMI containing 5% FBS and 5% horse serum. Test compounds (10 µM), positive control (2 µM amphotericin B) or negative control (1% DMSO) were then added to the cultures using a Biomek FXp liquid handler (Beckman Coulter). Cultures were incubated at 37°C for 72 h. Cells were then washed with phosphate-buffered saline (PBS), fixed for 30 minutes with 4% formaldehyde, rinsed again with PBS, stained for 2 h with 4′,6′-diamidino-2-phenylindole (DAPI 300 nM) and finally washed with PBS. […] Images were acquired with an INCell Analyzer 1000 automated epi-fluorescent microscope (G.E. Healthcare). The excitation and emission filters used to detect DAPI were 350/50 nm and 460/40 nm respectively. Eight image fields were acquired per well with a 20X objective. The proprietary INCell Developer Toolbox 1.7 software was used for image analysis. Segmentation parameters were set to identify host nuclei with a minimum area of 250 µm^2 and parasite kinetoplast with an average area of 1 µm^2. The intensity of parasite nucleus was too low to be detected with a 20X objective. A border, representing the boundary of the cell, was drawn around the nucleus (total area between 700 and 2000 µm^2). Only parasites found within this area were included in the calculation to eliminate extracellular parasites. False positive parasite detection in the nucleus was also excluded from the calculation. Host cell nuclei and parasite kinetoplasts were counted and the ratio of parasites DNA to host nuclei was selected as the measurement output. Percentage inhibition of parasite growth was calculated as [1-(P/hcx-P/hc^+)/(P/hc^−-P/hc^+)]*100 where P/hcx, P/hc^+ and P/hc^− are parasite per host cell ratio for every well, positive control (amphotericin B) and negative control (DMSO) respectively. Calculation of Z' factor and GI50 curve fitting were carried out as described above.

[2] = tested on: THP-1; assay: Host cell toxicity: THP-1 host nuclei counts in the image-based assay; conditions: for GI50: read-out: GI50 THP-1; for Selectivity: ratio between parasite GI50 and THP-1 GI50
Procedure: as §1

[3] = tested on: L. donovani axenic amastigotes; assay: Dose response study against axenic amastigotes (CellTiter-Glo); assay type: cell-based, Leishmania donovani; conditions: 72 h at 37°C, CellTiter-Glo, read-out: GI50 Axenic amastigote
Procedure: L. donovani axenic amastigotes (5×10^5 cells/ml in axenic amastigote media) were dispensed in sterile 96-well flat white opaque assay plates (Greiner Bio-One) using a WellMate multichannel dispenser (Matrix). […] 1% DMSO and amphotericin B (2 µM, 1% DMSO final concentration) were added as negative and positive controls respectively. Axenic amastigotes were incubated with the compounds for 72 h at 37°C with 5% CO2. Parasite viability was then measured using CellTiter-Glo as described above.

[4] = tested on: L. donovani promastigotes; assay: Promastigote high-throughput ATP-bioluminescence assay; assay type: cell-based, Leishmania donovani; conditions: 72 h at 27°C, CellTiter-Glo, read-out: GI50 Promastigote
Procedure: L. donovani promastigotes from an exponentially growing culture were diluted to 10^6/ml in RPMI containing 10% FBS and 10% BHT. The diluted culture (99 µl/well) was dispensed in sterile 96-well flat white opaque assay plates (Greiner Bio-One) using a WellMate multichannel dispenser (Matrix). 1 µl of 1 mM test compound dissolved in DMSO was added to the plates for a final concentration of 10 µM compound and 1% DMSO. Amphotericin B was added as a positive control (final concentration 2 µM, 1% DMSO) and as a negative control, 1 µl DMSO was added (1% final concentration). Compounds and controls were added to the assay plate with the robotic dispenser Biomek FXp liquid handler (Beckman Coulter). Promastigotes were incubated with the compounds for 72 h at 27°C. The parasites were then lysed by adding 50 µl of CellTiter-Glo (Promega) and placed on an orbital shaker for 5 min at room temperature. After lysis, the resulting ATP-bioluminescence was measured using the Analyst HT plate reader (Molecular Devices). Percentage inhibition of parasite growth was calculated for each well as [1-(RLUx-RLU^+)/(RLU^--RLU^+)]*100 where RLUx, RLU^+ and RLU^- are respectively the Relative Light Units for each well, positive (amphotericin B) and negative (DMSO) controls. A screening window coefficient, denoted Z' factor, was used to evaluate the performance of the assay. The Z' factor, calculated as 1-(3σc++3σc−)/(µc+−µc−) where σc+, σc−, µc+ and µc− are respectively the standard deviation and mean values of positive and negative controls, is reflective of the assay signal dynamic range and the data variation associated with signal measurement. […] GI50 curve fitting was carried out using GraphPad Prism 4 Software (GraphPad Software Inc., San Diego, CA).

[5] = Leishmania donovani, THP-1, 72 h

SMILES: N=C(N)c1ccc(OCCCCCOc2ccc(C(=N)N)cc2)cc1 [Pentamidine Isethionate]
- Primary screen against intracellular amastigotes, hit selection ([1]; 10 µM, duplicates, hit = 60% parasite growth inhibition and not more than 20% reduction in THP-1 numbers): active
- GI50 [1, 5]: 9.55 µM
- Specificity [1]: 0.17
- GI50 ([2]; Homo sapiens, THP-1, 72 h): > 50 µM
- Selectivity [2]: 29.49
- GI50 ([3]; Leishmania donovani): 1.64 µM
- GI50 ([4]; Leishmania donovani): 1.69 µM

SMILES: Clc1ccc(COC(Cn2ccnc2)c2ccc(Cl)cc2Cl)c(Cl)c1 (stereo not drawn) [Miconazole]
- GI50 [1, 5]: 15.4 µM
- Specificity [1]: 0.48
- GI50 ([2]; Homo sapiens, THP-1, 72 h): > 16.5 µM
- Selectivity [2]: 1.07
- GI50 ([3]; Leishmania donovani): 4.73 µM
- GI50 ([4]; Leishmania donovani): 7.48 µM

SMILES: CCOC(=O)C1=C(COCCN)NC(C)=C(C(=O)OC)C1c1ccccc1Cl (stereo not drawn) [Amlodipine]
- GI50 [1, 5]: 9.78 µM
- Specificity [1]: 0.31
- GI50 ([2]; Homo sapiens, THP-1, 72 h): > 16.5 µM
- GI50 ([3]; Leishmania donovani): 27 µM
- GI50 ([4]; Leishmania donovani): 3.11 µM

SMILES: COc1cc2nc(N3CCN(C(=O)C4COc5ccccc5O4)CC3)nc(N)c2cc1OC (stereo not drawn) [Doxazocin]
- GI50 [1]: 5 µM
- Specificity [1]: 1.69
- Selectivity [2]: 3.32
- GI50 ([2]; PMA-differentiated infected THP-1, 72 h, host nuclei count): > 16.5 µM
- GI50 [3]: > 16.5 µM
- GI50 [4]: 8.45 µM
